Where “and” joins values, the source holds several entries; their conditions need not be identical. Equal values may be shown once. Entries after “also recorded” stand apart in the source; their conditions may differ. Read-outs that look alike come from different tables or passages of the source. Marks after values point to notes of the source that are not given here.
How the values were obtained:
[1] = test system: human mammary carcinoma MX-1 xenograft; parameters: Toxicity toward Nude Mice: key to the marks not given beside the values; conditions: for Toxicity toward Nude Mice: based on body weight decrease or lethality; for Therapeutic Effect against MX-1 Xenograft: based on tumor volume reduction vs untreated control
Protocol: DMSO was used as a vehicle for epothilones. Each mouse received ≦40 μL DMSO in all experiments.
Athymic nude mice (nu/nu) were used for MX-1 and MCF-7/Adr human mammary carcinoma xenografts. Mice were obtained from Taconic Laboratory Animals and Service (Germantown, N.Y.: outbred, Swiss background).

CCRF-CEM/VBL = CCRF-CEM/VBL xenograft in nude mice, i.v. 6 h infusion; type: in vivo
Description: Treatment on days 19, 21, 23, 25, 27, 39, 41, 43, 45, 47 and 53.

[2] = test system: human ovarian adenocarcinoma SK-OV-3
[3] = Hematology and blood chemistry toxicity in MX-1 bearing mice; conditions: day 30; dEpoB 25 mg/kg i.p. day 7-15 then 35 mg/kg day 17-25; Taxol 5 then 6 mg/kg; MX-1 bearing nude mice
[4] = 40 mg/kg i.p. d18-26, extended after d8-16, day 28
[5] = dEpo B 15 mg/kg i.v. Q2Dx5 from day 9
[6] = dEpo B 15 mg/kg i.v. Q2Dx5 from day 9, day 13
[7] = dEpo B 15 mg/kg i.v. Q2Dx5 from day 9, day 15
[8] = dEpo B 15 mg/kg i.v. Q2Dx5 from day 9, day 17
[9] = dEpo B 15 mg/kg i.v. Q2Dx5 from day 9, day 19
[10] = i.p., Cremophor-EtOH, 15 mg/kg Q2D x 5 (dose of dEpoB)
[11] = i.p., DMSO, 35 mg/kg Q2D x 5 (dose of dEpoB)
[12] = i.v. infusion 6 hr, Cremophor-EtOH, 30 mg/kg Q2D x 5 (dose of dEpoB)
[13] = i.v. infusion 24 hr, Cremophor-EtOH, 60 mg/kg Q4D x 2 (dose of dEpoB)
[14] = i.v. injection, DMSO, 15 mg/kg Q2D x 5 (dose of dEpoB)
[15] = i.v. injection, DMSO, 24 mg/kg Q2D x 5 (dose of dEpoB)
[16] = CCRF/VBL Leukemia, dEpoB 30 mg/kg Q2D x 5, Taxol 15 mg/kg Q2D x 5
[17] = 35 mg/kg i.p. Q2Dx5 from day 9, day 15
[18] = 35 mg/kg i.p. Q2Dx5 from day 9, day 17
[19] = 35 mg/kg i.p. Q2Dx5 from day 9, day 19

## C/C1=C/C[C@@H](/C(C)=C/c2csc(C)n2)OC(=O)C[C@H](O)C(C)(C)C(=O)[C@H](C)[C@@H](O)[C@@H](C)CCC1 [Desoxyepothilone B, desoxyepothilone B]
[1]; [4]
  Average Body Weight Change: -1.2 g
  Tumor Disappearance: 5/10
[1]; 15 and 25 mg/kg i.p. days 7-15
  lethality and body weight: no lethality nor body weight reduction
[1]; 25-40 mg/kg, Q2Dx5, i.p.
  therapeutic outcome: marked tumor regression and cures
[1]; 6 hr i.v. infusion
  therapeutic outcome: full cure
[1]; [5]
  Toxicity Death: 4/6^b
  Tumor Disapp.: 0/6
[1]; [6]
  Average Body Weight Change: 0 g
  Average Tumor Size (T/C): 0.47
[1]; [7]
  Average Body Weight Change: -0.6 g
  Average Tumor Size (T/C): 0.30
[1]; [8]
  Average Body Weight Change: -1.1 g
  Average Tumor Size (T/C): 0.10
[1]; [9]
  Average Body Weight Change: -2.6 g
  Average Tumor Size (T/C): 0.04
[1]; dEpoB 35 mg/kg i.p. Q2Dx5, day 19
  tumor size treated/control: 0.02
[1]; extended 40 mg/kg i.p. every other day from day 18, 5 more doses
  mice with tumor disappearing on day 28 (or day 31): 5 out of 10
[1]; extended experiment, Desoxyepo B 40 mg/kg i.p., in 5/10 mice
  Average Tumor Disappearance Duration: 44 (5/10) Day
[1]; [10]
  Toxicity toward Nude Mice: +++++
  Therapeutic Effect against MX-1 Xenograft: +
[1]; [11]
  Toxicity toward Nude Mice: ++
  Therapeutic Effect against MX-1 Xenograft: +++++
[1]; [12]
  Toxicity toward Nude Mice: ++
  Therapeutic Effect against MX-1 Xenograft: +++++
[1]; [13]
  Toxicity toward Nude Mice: +++
  Therapeutic Effect against MX-1 Xenograft: +++++
[1]; [14]
  Toxicity toward Nude Mice: +++
  Therapeutic Effect against MX-1 Xenograft: ++
[1]; [15]
  Toxicity toward Nude Mice: +++
  Therapeutic Effect against MX-1 Xenograft: ++
[1]; mouse, in vivo
  # Died of toxicity: 0/10
  Average Body Weight (change), Day 14: -2.7 g
  Average Body Weight (change), Day 16: -4.0 g
  Average Body Weight (change), Day 18: -4.5 g
  Average Body Weight (change), Day 20: -6.8 g
  Average Body Weight Change, Day 20: -1.7 g
  Average Body Weight Change, Day 22: -2.4 g
  Average Body Weight Change, Day 24: -2.4 g
  Average Body Weight Change, Day 26: -1.4 g
  Average Body Weight Change, Day 28: -1.2 g
  Average Tumor Size (T/C), Day 14: 0.19 T/C
  Average Tumor Size (T/C), Day 16: 0.10 T/C
  Average Tumor Size (T/C), Day 18: 0.03 T/C
  Died: 0/10
  Lowest Average Tumor Size (T/C): 0 T/C
  Therapeutic Effects dEpoB vs Taxol: ≅
  Tumor Disappearance: 3/3 and 5/5
  Tumor Disappearance, Day 20: 2.10^b
  Tumor Disappearance, Day 22: 2/10
  Tumor Disappearance, Day 24: 3/10
  Tumor Disappearance, Day 26: 5/10
  Tumor Disappearance, Day 28: 5/10
[1]; mouse, in vivo, ip
  Therapeutic effect Rank Order: dEpoB > Camptothecin >; also recorded: dEpoB > Adriamycin > Taxol ®
[1]; mouse, in vivo, iv
  Therapeutic effect Rank Order: Taxol ® ≈ dEpoB
[1]; surviving mice 4, 5, 9, 35 mg/kg on day 8-16, 40 mg/kg on day 18-26, then no treatment
  Tumor Size, individual mice, Day 60: 0 mm^3 (2×) and 4 mm^3
CCRF-CEM/VBL; CCRF-CEM/VBL, i.v. infusion
  Therapeutic effect Rank Order: dEpoB >>> Taxol ®
CCRF-CEM/VBL; [16]
  Lowest Average Tumor Size (T/C): 0 T/C
  Tumor Disappearance: 2/2
CCRF-CEM/VBL; CCRF/VBL Leukemia, dEpoB 30 mg/kg Q2D x 5 vs Taxol 15 mg/kg Q2D x 5
  Therapeutic Effects dEpoB vs Taxol: >>>
[2]; 35 mg/kg i.p. Q2Dx5 from day 9
  Toxicity Death: 0/6
  Tumor Disapp.: 0/6
[2]; 35 mg/kg i.p. Q2Dx5 from day 9, day 13
  Average Body Weight Change: -1.7 g
[2]; [17]
  Average Body Weight Change: -2.1 g
  Average Tumor Size (T/C): 0.57
[2]; [18]
  Average Body Weight Change: -2.1 g
  Average Tumor Size (T/C): 0.33
[2]; [19]
  Average Body Weight Change: -2.4 g
  Average Tumor Size (T/C): 0.35
[2]; 35 mg/kg i.p. Q2Dx5 from day 9, day 21
  Average Tumor Size (T/C): 0.28
[2]; [5]
  Toxicity Death: 4/6^b
  Tumor Disapp.: 0/6
[2]; [6]
  Average Body Weight Change: 0 g
[2]; [7]
  Average Body Weight Change: -0.6 g
  Average Tumor Size (T/C): 0.86
[2]; [8]
  Average Body Weight Change: -1.1 g
  Average Tumor Size (T/C): 0.56
[2]; [9]
  Average Body Weight Change: -2.6 g
  Average Tumor Size (T/C): 0.50
[2]; dEpo B 15 mg/kg i.v. Q2Dx5 from day 9, day 21
  Average Tumor Size (T/C): 0.44
[2]; dEpoB 35 mg/kg i.p. Q2Dx5, day 21
  tumor size treated/control: 0.28
[2]; mouse, in vivo
  Lowest Average Tumor Size (T/C): 0.17 T/C
  Therapeutic Effects dEpoB vs Taxol: <<
  Therapeutic effect Rank Order: Taxol ® ≈ dEpoB
  Tumor Disappearance: 0
[2]; mouse, in vivo, iv
  Therapeutic effect Rank Order: Taxol ® > dEpoB
[3]
  GOT: 296 U/L
  GPT: 55 (n = 3) U/L
  WBC Lymph: 48%
  WBC Neutrophils: 48%
  WBC Total: 11.8 10^3/mm^3
